The text below walks through data of publication PMC3726336, “Product inhibition of cellulases studied with ^14C-labeled cellulose substrates” (Biotechnology for Biofuels, 2013).

By Ki is commonly meant the dissociation constant of the complex between target and ligand, obtained from inhibition or displacement. Read a high Ki as lower affinity. Broadly, the IC50 is the concentration at which inhibition is half-maximal.

What all share (format): biochemical
For one assay, the target named is AtCel7A (Acremonium thermophilum, UniProt A7WNT9). Briefly: Cellobiose inhibition of MUL hydrolysis by AtCel7A. Particulars: MUL substrate (5 μM). The source says:
The cellobiose inhibition of GH7 CBHs is most often studied on low-Mw model substrates. However, it has been shown that the inhibition of CBHs acting on low-Mw substrates appears to be much stronger than that on cellulose substrates. The Ki values for cellobiose inhibition of GH7 CBHs measured on low-Mw substrates are in the micromolar range [44, 51, 52], whereas those measured on cellulose are in the low- to high-millimolar range [28, 31, 32]. […] Unfortunately, the inhibition of this enzyme on cellulose has not been studied. We also studied the cellobiose inhibition of GH7 CBHs acting on MUL. The initial rates of MUL hydrolysis measured in the presence and absence of added cellobiose were first analyzed according to Equation 1, and the IC50 values were found using Equation 2. […] The inhibition of MUL hydrolysis is attributable to the binding of cellobiose to the product sites (+1/+2) of TrCel7A [52]. […]
For the inhibition of enzyme acting on the low-Mw substrate, the initial rates of the hydrolysis of MUL in the presence and absence of added cellobiose were followed. […] Reactions were stopped by the addition of NH3 (final concentration 0.1 M), and the released 4-methylumbelliferone was quantified by fluorescence using excitation and emission wavelengths of 360 nm and 450 nm, respectively.

A further assay concerns the target T1, TrCel6A (Trichoderma reesei, UniProt P07987).
T1 construct: TrCel6A was purified from the culture filtrate of Tr QM 9414 as described previously; made in house; host or cells: Trichoderma reesei QM 9414 culture filtrate (native producer)
The experiment in a line: Inhibition of hydrolysis of 14C-BMCC by TrCel6A. An excerpt:
(§1) Here, we characterized the cellobiose and glucose inhibition of TrCel6A and its thermophilic counterpart, CtCel6A [9, 63]. First, the cellobiose inhibition of the synergistic hydrolysis of ^14C-BC by TrCel6A and TrCel5A was studied (Figure 7A). As TrCel6A was less sensitive to cellobiose inhibition than TrCel7A, the contribution of the cellobiose released during hydrolysis was not significant, and an average (DCB/DCB=0) over all time points was used in plotting (DCB/DCB=0) versus [cellobiose] (Figure 7D). No significant systematic variation of DCB/DCB=0 depending on hydrolysis time was observed. As in the case of GH7 CBHs, the IC50 value was found using Equations 5 and 6. Because the IC50 value for synergistic hydrolysis (Table 3) was of the same order as the apparent Ki value reported for TrCel5A [31], we further tested the inhibition of individual TrCel6A. BC is not a good substrate for TrCel6A, but its acid-treated derivative, BMCC, is readily degraded by the enzyme. Therefore, we prepared ^14C-BMCC by the heterogeneous acid hydrolysis of ^14C-BC. […]
(§2) GH6 CBHs were assessed by observing the hydrolysis of ^14C-BMCC. ^14C-BMCC (0.25 g l^-1) was incubated (with shaking at 350 rpm) with CBH (0.25 μM) and N188BG (0.06 μM) in 50 mM sodium acetate buffer, pH 5.0, containing BSA (0.1 g l^-1). […]

For a further assay, the target named is CtCel6A (Chaetomium thermophilum, UniProt G0SD43). The experiment in a line: Inhibition of hydrolysis of 14C-BMCC by CtCel6A. Particulars: cellobiose; hydrolysis of 14C-BMCC by CtCel6A at 50°C.
Source text: as §1, §2

Sequence of AtCel7A (A7WNT9 entry or part of it): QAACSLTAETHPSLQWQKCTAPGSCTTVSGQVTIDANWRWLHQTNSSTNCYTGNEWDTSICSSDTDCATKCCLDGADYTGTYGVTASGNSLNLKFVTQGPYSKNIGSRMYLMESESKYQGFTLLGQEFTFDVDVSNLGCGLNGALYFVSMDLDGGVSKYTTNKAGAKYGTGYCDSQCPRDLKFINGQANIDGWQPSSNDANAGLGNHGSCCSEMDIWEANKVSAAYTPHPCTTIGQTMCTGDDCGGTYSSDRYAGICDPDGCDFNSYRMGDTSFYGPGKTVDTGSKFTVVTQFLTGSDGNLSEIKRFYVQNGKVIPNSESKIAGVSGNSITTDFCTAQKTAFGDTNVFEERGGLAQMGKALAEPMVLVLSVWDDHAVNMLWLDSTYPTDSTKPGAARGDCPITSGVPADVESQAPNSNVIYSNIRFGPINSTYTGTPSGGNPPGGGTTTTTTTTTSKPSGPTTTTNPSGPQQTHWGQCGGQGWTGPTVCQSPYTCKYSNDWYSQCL
T1 sequence (P07987 25-471): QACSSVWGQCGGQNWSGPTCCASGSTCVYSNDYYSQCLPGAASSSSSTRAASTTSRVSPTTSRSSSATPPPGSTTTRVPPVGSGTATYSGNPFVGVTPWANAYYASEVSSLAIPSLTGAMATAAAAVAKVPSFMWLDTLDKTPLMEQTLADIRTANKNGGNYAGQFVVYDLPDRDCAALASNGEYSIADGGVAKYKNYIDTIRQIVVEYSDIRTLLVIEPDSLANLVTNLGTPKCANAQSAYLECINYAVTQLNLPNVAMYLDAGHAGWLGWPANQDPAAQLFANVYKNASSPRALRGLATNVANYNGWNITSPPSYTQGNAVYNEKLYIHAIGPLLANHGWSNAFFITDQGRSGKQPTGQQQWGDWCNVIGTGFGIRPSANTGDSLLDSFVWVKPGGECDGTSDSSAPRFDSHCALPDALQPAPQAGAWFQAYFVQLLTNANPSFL
Sequence of CtCel6A (G0SD43 entry or part of it): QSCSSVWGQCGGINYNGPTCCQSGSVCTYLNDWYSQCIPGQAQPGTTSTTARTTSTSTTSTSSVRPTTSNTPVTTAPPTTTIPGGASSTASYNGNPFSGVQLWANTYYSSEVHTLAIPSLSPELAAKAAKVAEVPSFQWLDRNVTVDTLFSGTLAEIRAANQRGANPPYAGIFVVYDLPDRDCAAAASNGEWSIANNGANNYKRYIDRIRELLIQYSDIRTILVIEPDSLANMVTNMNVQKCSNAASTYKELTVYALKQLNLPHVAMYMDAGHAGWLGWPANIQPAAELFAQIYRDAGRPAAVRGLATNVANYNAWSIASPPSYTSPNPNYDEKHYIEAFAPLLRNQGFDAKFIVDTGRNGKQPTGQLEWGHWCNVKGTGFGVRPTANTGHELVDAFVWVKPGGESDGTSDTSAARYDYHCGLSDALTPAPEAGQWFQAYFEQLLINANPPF

With `O=C[C@H](O)[C@@H](O)[C@H](O[C@@H]1O[C@H](CO)[C@@H](O)[C@H](O)[C@H]1O)[C@H](O)CO` [cellobiose, Cellobiose], the Ki was determined as 95 µM at AtCel7A (35°C) and 233 µM on AtCel7A (50°C). Besides, the figures for the IC50 on TrCel6A and at CtCel6A were 20 ± 1.4 mM and 28 ± 4.5 mM, respectively.
